Assay results as given in patent US6638919B2, “Antiviral purine derivatives” (University College Cardiff Consultants Limited, priority 2001, dated 2003).
Counter-ions that a name gives are not always drawn. Like-named read-outs stand apart in the source and are kept apart here.

Legend:
Solid type of salt forms = type: physicochemical
[1] = Solution stability of salt forms; type: physicochemical; conditions: % of parent (AUC) after 27 hr at room temperature
Excerpt: (§1) The solubility and solution/solid state stability of three salt forms of (1S, 4R)-4-[2-amino-5(cyclopropylamino)-9(H)-purin-9-yl]-2-cyclopentene-1-methanol O-(phenyl ethoxy-L-alaninyl) phosphate

[2] = Solid state stability of salt forms; type: physicochemical; conditions: % of parent (AUC) after two weeks at 60° C.
Excerpt: as §1

HIV-2 [3] = test: Inhibition of HIV-2 in CEM.TK- cells; type: cell-based; conditions: read-out: HIV2 CEM. TK.
Protocol: Cells were infected with HIV-1 as previously described [Balzarini et al. AIDS (1991), 5, 21-28]. Briefly, 5×10^5 cells per milliliter were infected with HIV-1 or HV-2 at 100 CClD50 (50% cell culture infective dose) per milliliter of cell suspension. Then 100 μL of the infected cell suspension was transferred to microtiter plate wells and mixed with 100 μL of the appropriate dilutions of the test compounds. After 4 days giant cell formation was recorded microscopically in the HIV-infected cell cultures [CEM].
HIV2CEM.TK- EC50 μM for inhibition of IV-2 in CEM=cells

MSV [4] = test: Minimum cytotoxic concentration in MSV assay; type: cell-based; conditions: Table III
Excerpt: MCC MSV: minimum cytotoxic concentration in MSV essay.

HIV-2 [5] = test: Inhibition of HIV-2 giant cell formation in CEM cells; type: cell-based; conditions: read-out: HIV2 CBM
Protocol: (§2) Then 100 μL of the infected cell suspension was transferred to microtiter plate wells and mixed with 100 μL of the appropriate dilutions of the test compounds.
HIV1 CEM: EC50 in μM for inhibition of […] in CEM cells.
HIV2 CEM: EC50 in μM for inhibition of HIV-2 in CEM cells

MSV [6] = test: Inhibition of MSV; type: cell-based; conditions: read-out: EC50 MSV
Protocol: EC50 MSV: EC50 μM for inhibition of MSV

HIV-1 = test: Inhibition of HIV-1 giant cell formation in CEM cells; type: cell-based; conditions: read-out: HIV1 CBM
Protocol: as §2
HIV 1 CEM: EC50 in μM for inhibition of HIV1 in CEM cells

[7] = Toxicity to mock-infected CEM cells (CC50); type: cell-based; conditions: human; Table III; toxicity to CEM cells; read-out: CC50 CEN
Protocol: as §2
(§3) CC50 CEM: CC50 in μM for toxicity to CEM cells.
(§4) CC50 CEM: CC50 μM for toxicity to CEM cells

[8] = Biological stability in heparinised human plasma; conditions: heparinised human plasma, 37° C.
Protocol: Each compound was incubated in normal heparinised human plasma at 37° C. for 4 hours. […] Drug concentrations were then determined by LC/MS/MS analysis using standard methods.

[9] = Acid stability, dilute HCl pH1, simulated stomach conditions; type: physicochemical; conditions: 0.1N HCl pH1, 25° C.
Protocol: Compounds were tested for their stability towards acid-mediated hydrolytic decomposition employing a test designed to simulate stomach conditions. Each compound was incubated in dilute HCl of pH1 for 24 hours at 25° C. 0.3 mg of compound were added to 1 mL of 0.1N HCl at 25° C. HPLC was run immediately for time=0 and at intervals up to approximately 24 hours.

CEM cells = test: Toxicity to mock-infected CEM cells (CC50); type: cell-based; conditions: Table III; toxicity to CEM cells; read-out: CC50 CEN
Protocol: as §2, §3, §4

[10] = Human immunodeficiency virus 2, CEM-TK(-)
[11] = Human immunodeficiency virus 2, CCRF-CEM, Table III, EC50 for inhibition of HIV-2 in CEM cells
[12] = Human immunodeficiency virus 1, CCRF-CEM, Table III, EC50 for inhibition of HIV1 in CEM cells
[13] = Table III, EC50 for inhibition of HIV-2 in CEM.TK- cells
[14] = Table III, EC50 for inhibition of HIV-2 in CEM cells

Structure (SMILES): CCOC(=O)[C@H](C)NP(=O)(OC[C@@H]1C=C[C@H](n2cnc3c(NC4CC4)nc(N)nc32)C1)Oc1ccccc1.O=C(O)/C=C/C(=O)O (stereo partly drawn) [Example 3, (1S,4R)-4-(2-Amino-6cyclopropylamino-9(H)-purin-9-yl)-2-cyclopentene-1-methanol O-(phenylethoxy-L-alaninyl) phosphate Fumarate Salt]
- Solid Type (Solid type of salt forms): crystals
- Stability (%) 0.1 N HCl [1]: 70.0%
- Stability (%) HPMC/Tween [1]: 98.3%
- Stability (%) PBS [1]: 98.5%
- Solid State Stability (%) [2]: 97.1%

Structure (SMILES): C[C@H](NP(=O)(OC[C@@H]1C=CC(n2cnc3c(NC4CC4)nc(N)nc32)C1)Oc1ccccc1)C(=O)OCCC(C)(C)C (stereo partly drawn) [Compound 1687, (1S,4R)-4-(2-amino6cyclopropylamino-9H-purin-9-yl)-2-cyclopentene-1-methanol O-[phenyl(3,3-dimethyl-]-butoxy-L-alaninyl)phosphate]
- EC50 (HIV-2 [3]; [10]): 0.14 µM
- MCCMSV (MSV [4]): >4
- EC50 (HIV-2 [5]; [11]): 0.2 µM
- EC50 (MSV [6]; Table III, inhibition of MSV): 2.22 µM
- EC50 (HIV-1; [12]): 0.2 µM
- CC50 [7]: 10.2 µM

Structure (SMILES): CCC(CC)OC(=O)[C@H](C)NP(=O)(OC[C@@H]1C=CC(n2cnc3c(NC4CC4)nc(N)nc32)C1)Oc1ccccc1 (stereo partly drawn) [Compound 1685]
- EC50 (HIV-2 [3]; [10]): 12.5 µM
- MCCMSV (MSV [4]): >20
- EC50 (HIV-2 [5]; [11]): 2 µM
- EC50 (MSV [6]; Table III, inhibition of MSV): 10.1 µM
- EC50 (HIV-1; [12]): 1.6 µM
- CC50 [7]: 19.7 µM

Structure (SMILES): COC(=O)[C@H](C)NP(=O)(OC[C@@H]1C=C[C@H](n2cnc3c(N)ncnc32)O1)Oc1ccccc1 (stereo partly drawn) [Compound 1001, 2′, 3′-dideoxy-2′, 3′-didehydroadenosine-5′-(phenylmethoxyalaninyl) phosphate]
- Half-life [8]: 4.6 h
- % Remaining at 4 hours ([8]; 4 hours): 52%
- time to disappearance in acid [9]: < 1 min
- Compound left (%) ([9]; time 0 hr): 0%
- Compound left (%) ([9]; time 17 hr): 0%

Structure (SMILES): C[C@@H](NP(=O)(O)OC[C@@H]1C=C[C@H](n2cnc3c(NC4CC4)nc(N)nc32)C1)C(=O)O [Compound 1595, (1S,4R)-4-(2-amino-6-cyclopropylamino-9H-purin-9-yl)-2-cyclopentene-1-methanol O-(D-alaninyl)-phosphate diammonium salt]
- EC50 (HIV-2 [3]; [13]): 0.8 µM
- EC50 (HIV-2 [5]; [14]): 1.2 µM
- CC50 (CEM cells): 213 µM

Structure (SMILES): COC(=O)[C@@H]1CCCN1P(=O)(OC[C@@H]1C=CC(n2cnc3c(NC4CC4)nc(N)nc32)C1)Oc1ccccc1 (stereo partly drawn) [Compound 1719]
- MCCMSV (MSV [4]): ≧100
- EC50 (HIV-2 [5]; Human immunodeficiency virus 2, CCRF-CEM): 5.5 µM
- EC50 (MSV [6]): 11.6 µM
- EC50 (HIV-1; Human immunodeficiency virus 1, CCRF-CEM): 4 µM
- CC50 at 4 days [7]: 19.4 µM

Structure (SMILES): CCOC(=O)[C@H](C)NP(=O)(OC[C@@H]1C=C[C@H](n2cnc3c(NC4CC4)nc(N)nc32)C1)Oc1ccccc1.O=C(O)CCC(=O)O (stereo partly drawn) [Example 1, (1S,4R)-442-Amino-6-cyclopropylamino-9(purin-9-yl)-2-cyclopentene-1-methanol O-(phenylethoxy-L-alaninyl) phosphate Succinate Salt]
- Solid Type (Solid type of salt forms): crystals
- Stability (%) 0.1 N HCl [1]: 66.0%
- Stability (%) HPMC/Tween [1]: 98.8%
- Stability (%) PBS [1]: 99.8%
- Solid State Stability (%) [2]: 99.6%

Structure (SMILES): COC(=O)C(NP(=O)(OC[C@@H]1C=CC(n2cnc3c(NC4CC4)nc(N)nc32)C1)Oc1ccccc1)C(C)C (stereo partly drawn) [Compound 1666]
- EC50 (HIV-2 [3]; [10]): 3.5 µM
- MCCMSV (MSV [4]): >20
- EC50 (HIV-2 [5]; [11]): 4 µM
- EC50 (MSV [6]; Table III, inhibition of MSV): 11.8 µM
- EC50 (HIV-1; [12]): 3.5 µM
- CC50 [7]: 54.1 µM

Structure (SMILES): COC(=O)[C@H](C)NP(=O)(OC[C@@H]1C=C[C@H](n2cnc3c(NC4CC4)nc(N)nc32)C1)Oc1ccc(Cl)cc1 (stereo partly drawn) [Compound 1620, (1S,4R)-4-(2-amino-6-cyclopropylamino-9H-purin-^9-yl)-2-cyclopentene-1-methanol O-[4-chlorophenyl-(methoxy-L-alaninyl)]-phosphate]
- EC50 (HIV-2 [3]; [13]): 0.013 µM
- EC50 (HIV-2 [5]; [14]): 0.063 µM
- EC50 (HIV-1; Table III, EC50 for inhibition of HIV1 in CEM cells): 0.014 µM
- CC50 (CEM cells): 4.7 µM
